Molecular target: AtlE (Staphylococcus aureus, UniProt A0A0H3JT72)
Assay: SPR binding affinity to AtlE (steady state 1:1 model)
Protocol: SPR experiments were performed using a Biacore T100 (GE Healthcare) equipped with a Series S sensor chip CM5 (GE Healthcare). PBS buffer (67 mM Na2HPO4, 12.5 mM KH2PO4, 70 mM NaCl, 0,05% P20, pH 7.4) was used for immobilisation of the protein. AtlE was produced as previously described[1] and attached to the surface of the chip by amine coupling. The surface of flow cells 1 and 2 was initially activated with a 10-min pulse of a 1:1 mixture of 0.4 M 1-ethyl-3–(3-dimethylaminopropyl)-carbodiimide hydrochloride and 0.1 M N-hydroxysuccinimide, according to manufacturer recommendations. AtlE was diluted into 10 mM sodium acetate buffer, pH 5.8, to a final concentration of 100 µg/mL, and injected twice for 180 s over the second flow cell. Both flow cells were blocked with a 7-min pulse of 1.0 M ethanolamine. The final immobilisation level was about 4100 RU. Screening was run at 25 °C using PBS (67 mM Na2HPO4, 12.5 mM KH2PO4 pH 7.4, 70 mM NaCl, 0.05% P20) supplemented with 1% or 5% DMSO (Merck) as the running buffer. Selected compounds from the virtual screening studies were tested at two different concentrations: 40 and 400 µM. Each compound was injected for 1 min at a flow-rate of 30 µL/min, and the dissociation was monitored for 30 s. […] KD values were determined by fitting of the data to a 1:1 steady state binding model.

AtlE, sequence (A0A0H3JT72 entry or part of it): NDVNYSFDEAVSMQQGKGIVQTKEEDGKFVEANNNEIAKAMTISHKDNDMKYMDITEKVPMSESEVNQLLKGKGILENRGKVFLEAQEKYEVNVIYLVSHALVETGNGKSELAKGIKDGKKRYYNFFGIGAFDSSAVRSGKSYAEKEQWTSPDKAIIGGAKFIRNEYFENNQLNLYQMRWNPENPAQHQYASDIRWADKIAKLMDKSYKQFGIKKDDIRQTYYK

## O=C(Nc1cccc(Cl)c1)NC1CCN(c2cccc(C(=O)N3CCc4ccccc4C3)c2)CC1 [Compound 10]
  Kd: 1.9 µM

Source: article PMC6116672, “Discovery of (phenylureido)piperidinyl benzamides as prospective inhibitors of bacterial autolysin E from Staphylococcus aureus” (Journal of Enzyme Inhibition and Medicinal Chemistry, 2018)
